From ChEMBL document CHEMBL1201862, “PubChem BioAssay data set” (2004)
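The compound was tested at five concentrations on cells cultured in 96-well plates, with a 48-hour exposure period. GI50 = concentration required for 50% inhibition of growth.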 Active and inactive are the calls of the source. Cut-off read from the data, not from the text of the source: active = GI50 up to about 1.1 µM and inactive = higher.

Columns and labels:
Experiment in all cases: NCI anticancer screen, dose series, 48 h
SF-268 = system: SF-268
HOP-62 = system: HOP-62
MDA-N = system: MDA-N
HOP-92 = system: HOP-92
K562 = system: K562
MOLT-4 = system: MOLT-4
SF-539 = system: SF-539
TK-10 = system: TK-10
NCI-H460 = system: NCI-H460
SNB-75 = system: SNB-75
SK-MEL-5 = system: SK-MEL-5
KM12 = system: KM12
OVCAR-4 = system: OVCAR-4
IGROV-1 = system: IGROV-1
MCF7 = system: MCF7
Hs-578T = system: Hs-578T
786-0 = system: 786-0
RPMI-8226 = system: RPMI-8226
OVCAR-5 = system: OVCAR-5
A498 = system: A498

Measured: GI50

CCCCC(=O)N/S(=N/C(=O)c1ccccc1)C(Cl)(Cl)Cl (stereo not drawn)
inactive: SF-268 > 100 µM | HOP-62 > 100 µM | MDA-N > 100 µM | HOP-92 > 100 µM | K562 > 100 µM | MOLT-4 > 100 µM | SF-539 > 100 µM | TK-10 > 100 µM | NCI-H460 > 100 µM | SNB-75 > 100 µM | SK-MEL-5 > 100 µM | KM12 > 100 µM | OVCAR-4 > 100 µM | IGROV-1 > 100 µM | MCF7 > 100 µM | Hs-578T > 100 µM | 786-0 > 100 µM | RPMI-8226 > 100 µM | OVCAR-5 > 100 µM

CC(C)OC(=O)C1=C2c3ncccc3C(=O)N2[C@@H](Cl)[C@@H](Cl)[C@@H]1Cl
inactive: SF-268 82.2 µM | HOP-62 > 100 µM | MDA-N 74.1 µM | A498 > 100 µM | HOP-92 > 100 µM | K562 33.4 µM | MOLT-4 31.8 µM | SF-539 > 100 µM | TK-10 > 100 µM | NCI-H460 > 100 µM | SK-MEL-5 > 100 µM | KM12 > 100 µM | OVCAR-4 > 100 µM | IGROV-1 96.4 µM | MCF7 84.3 µM | Hs-578T 81.5 µM | 786-0 73.8 µM | RPMI-8226 29.8 µM | OVCAR-5 > 100 µM

Fc1ccc(/N=N/N2CCCC2)cc1
inactive: SF-268 > 100 µM | HOP-62 > 100 µM | MDA-N 32.4 µM | A498 > 100 µM | HOP-92 > 100 µM | K562 4.66 µM | MOLT-4 32.1 µM | SF-539 > 100 µM | TK-10 62.4 µM | NCI-H460 15.7 µM | SK-MEL-5 33.9 µM | KM12 92.3 µM | OVCAR-4 > 100 µM | IGROV-1 82.4 µM | MCF7 77.8 µM | Hs-578T > 100 µM | 786-0 > 100 µM | RPMI-8226 22.3 µM | OVCAR-5 > 100 µM

CCC1OC2C(CC=C(C)C)=C3OC(C)(O)C(C)(CC)C(OC(=O)c4ccccc4)C3=C3OC(=O)C=C1C32 (stereo not drawn)
inactive: SF-268 36 µM | HOP-62 76.2 µM | MDA-N 20.5 µM | A498 40.3 µM | HOP-92 70 µM | K562 39 µM | MOLT-4 23.1 µM | SF-539 25.2 µM | TK-10 52 µM | NCI-H460 46.9 µM | SNB-75 42.4 µM | SK-MEL-5 19.8 µM | KM12 39.9 µM | IGROV-1 50.7 µM | MCF7 47.6 µM | Hs-578T 23.1 µM | 786-0 41.7 µM | RPMI-8226 24.7 µM | OVCAR-5 54.1 µM

Cc1nnc2n(c1=O)CCN2C
inactive: SF-268 > 100 µM | HOP-62 > 100 µM | MDA-N > 100 µM | HOP-92 > 100 µM | K562 > 100 µM | MOLT-4 > 100 µM | SF-539 > 100 µM | TK-10 > 100 µM | NCI-H460 > 100 µM | SNB-75 89.7 µM | SK-MEL-5 > 100 µM | KM12 > 100 µM | OVCAR-4 > 100 µM | IGROV-1 > 100 µM | MCF7 > 100 µM | Hs-578T > 100 µM | 786-0 > 100 µM | RPMI-8226 > 100 µM | OVCAR-5 > 100 µM

O=[N+]([O-])c1cn[n+]([O-])c2ccccc12
inactive: SF-268 4.59 µM | HOP-62 12.9 µM | MDA-N 13.6 µM | A498 23.1 µM | HOP-92 12.7 µM | MOLT-4 1.71 µM | SF-539 10.4 µM | TK-10 12.9 µM | NCI-H460 4.61 µM | SK-MEL-5 13.2 µM | KM12 5.36 µM | MCF7 10.7 µM | Hs-578T 13.8 µM | 786-0 2.43 µM | RPMI-8226 2.03 µM | OVCAR-5 12.4 µM

O=P(c1ccccc1)(c1ccccc1)N1O[C@@H](c2ccccc2)C=C[C@H]1c1ccccc1
inactive: SF-268 12.4 µM | HOP-62 13.1 µM | MDA-N 3.31 µM | HOP-92 11.6 µM | K562 6.17 µM | MOLT-4 5.32 µM | SF-539 16.2 µM | TK-10 14 µM | NCI-H460 5.53 µM | SNB-75 13.3 µM | SK-MEL-5 11.4 µM | KM12 14.5 µM | OVCAR-4 2.57 µM | IGROV-1 10.8 µM | MCF7 3.4 µM | Hs-578T 14.2 µM | 786-0 10.4 µM | RPMI-8226 5.79 µM | OVCAR-5 16 µM

CCN(CC)CCCn1c(=O)c2cccnc2n2c3c(=O)n(C)c(=O)n(C)c3nc12
inactive: SF-268 > 100 µM | HOP-62 > 100 µM | MDA-N > 100 µM | HOP-92 > 100 µM | K562 > 100 µM | MOLT-4 > 100 µM | SF-539 > 100 µM | TK-10 > 100 µM | NCI-H460 84.7 µM | SNB-75 > 100 µM | SK-MEL-5 > 100 µM | KM12 > 100 µM | OVCAR-4 > 100 µM | IGROV-1 > 100 µM | MCF7 > 100 µM | Hs-578T > 100 µM | 786-0 > 100 µM | RPMI-8226 > 100 µM | OVCAR-5 > 100 µM

COc1cc(C2SCC(=O)N2c2ccccc2Cl)cc(OC)c1OC (stereo not drawn)
inactive: SF-268 > 100 µM | MDA-N 19.4 µM | A498 > 100 µM | HOP-92 > 100 µM | K562 > 100 µM | SF-539 > 100 µM | TK-10 > 100 µM | NCI-H460 > 100 µM | SK-MEL-5 92 µM | KM12 47.2 µM | OVCAR-4 > 100 µM | IGROV-1 > 100 µM | MCF7 62.1 µM | Hs-578T > 100 µM | 786-0 > 100 µM | RPMI-8226 90.2 µM | OVCAR-5 > 100 µM

O=C1/C(=C\c2cccc(Oc3ccccc3)c2)SC(c2ccccc2)N1c1ccccc1 (stereo not drawn)
inactive: SF-268 > 100 µM | HOP-62 > 100 µM | MDA-N 30.1 µM | A498 > 100 µM | HOP-92 60.7 µM | K562 23.3 µM | MOLT-4 23.2 µM | SF-539 26.5 µM | TK-10 > 100 µM | NCI-H460 > 100 µM | SK-MEL-5 27.1 µM | KM12 46.9 µM | OVCAR-4 75.2 µM | MCF7 30 µM | Hs-578T > 100 µM | 786-0 > 100 µM | RPMI-8226 14.8 µM | OVCAR-5 > 100 µM

CCC1(c2ccc(N3C(=O)c4cc(OC)c(OC)cc4C3=O)cc2)CCC(=O)NC1=O (stereo not drawn)
inactive: SF-268 > 10 µM | HOP-62 > 10 µM | MDA-N > 10 µM | A498 > 10 µM | HOP-92 > 10 µM | K562 > 10 µM | MOLT-4 > 10 µM | SF-539 > 10 µM | TK-10 > 10 µM | NCI-H460 > 10 µM | SK-MEL-5 > 10 µM | KM12 > 10 µM | OVCAR-4 > 10 µM | IGROV-1 > 10 µM | MCF7 > 10 µM | Hs-578T > 10 µM | 786-0 > 10 µM | RPMI-8226 > 10 µM | OVCAR-5 > 10 µM
